Measurements taken from the supplement of paper PMC10307832.

Legend:
Experiment in all cases: relative viability (nuclei count vs DMSO), 5 days (fraction); higher = more cells survive
KIN001-266 + OSI-027 = compound: CCN1CCC(CC1)N2C=C(N=N2)CNC3=CC4=C(C(=CN=C4C(=C3)Cl)C#N)NC5=CC(=C(C=C5)F)Cl [KIN001-266] + COc1cccc2cc(-c3nc([C@H]4CC[C@H](C(=O)O)CC4)n4ncnc(N)c34)[nH]c12 [OSI-027] (partner 0.5 µM)
How it was run: (§1)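 Lung cancer cell lines, seeded in 1536-well plates, were treated the following day by pin tool with a single drug or with five library-drug doses (not always all listed) in √10 steps on top of a fixed anchor-drug dose. Cells were fixed and nuclei stained in one step after 5 days, and nuclei were counted. Relative viability is the nuclei count for treated wells divided by that for vehicle wells, reported as medians of duplicate plates.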

KIN001-266 + Luminespib = compound: CCN1CCC(CC1)N2C=C(N=N2)CNC3=CC4=C(C(=CN=C4C(=C3)Cl)C#N)NC5=CC(=C(C=C5)F)Cl [KIN001-266] + CCNC(=O)c1noc(-c2cc(C(C)C)c(O)cc2O)c1-c1ccc(CN2CCOCC2)cc1 [Luminespib] (partner 0.01 µM)
How it was run: as §1

KIN001-266 + Palbociclib = compound: CCN1CCC(CC1)N2C=C(N=N2)CNC3=CC4=C(C(=CN=C4C(=C3)Cl)C#N)NC5=CC(=C(C=C5)F)Cl [KIN001-266] + CC(=O)c1c(C)c2cnc(Nc3ccc(N4CCNCC4)cn3)nc2n(C2CCCC2)c1=O [Palbociclib] (partner 0.5 µM)
How it was run: as §1

KIN001-266 + Pictilisib = compound: CCN1CCC(CC1)N2C=C(N=N2)CNC3=CC4=C(C(=CN=C4C(=C3)Cl)C#N)NC5=CC(=C(C=C5)F)Cl [KIN001-266] + CS(=O)(=O)N1CCN(Cc2cc3nc(-c4cccc5[nH]ncc45)nc(N4CCOCC4)c3s2)CC1 [Pictilisib] (partner 1 µM)
How it was run: as §1

Cell Line	relative viability (KIN001-266 + OSI-027; first compound 0.08 µM)	relative viability (KIN001-266 + OSI-027; first compound 0.253 µM)	relative viability (KIN001-266 + OSI-027; first compound 0.8 µM)	relative viability (KIN001-266 + OSI-027; first compound 2.53 µM)	relative viability (KIN001-266 + OSI-027; first compound 8 µM)	relative viability (KIN001-266 + Luminespib; first compound 0.08 µM)	relative viability (KIN001-266 + Luminespib; first compound 0.253 µM)	relative viability (KIN001-266 + Luminespib; first compound 0.8 µM)	relative viability (KIN001-266 + Luminespib; first compound 2.53 µM)	relative viability (KIN001-266 + Luminespib; first compound 8 µM)	relative viability (KIN001-266 + Palbociclib; first compound 0.08 µM)	relative viability (KIN001-266 + Palbociclib; first compound 0.253 µM)	relative viability (KIN001-266 + Palbociclib; first compound 0.8 µM)	relative viability (KIN001-266 + Palbociclib; first compound 2.53 µM)	relative viability (KIN001-266 + Palbociclib; first compound 8 µM)	relative viability (KIN001-266 + Pictilisib; first compound 0.08 µM)	relative viability (KIN001-266 + Pictilisib; first compound 0.253 µM)	relative viability (KIN001-266 + Pictilisib; first compound 0.8 µM)	relative viability (KIN001-266 + Pictilisib; first compound 2.53 µM)	relative viability (KIN001-266 + Pictilisib; first compound 8 µM)
NCI-H1395	0.719	0.761	0.715	0.594	0.591	0.829	0.76	0.619	0.545	0.659	0.671	0.614	0.648	0.602	0.616	0.693	0.843	0.614	0.522	0.575
HCC-827	0.682	0.787	0.495	0.734	0.661	0.659	0.38	0.509	0.841	0.362	0.443	0.492	0.374	0.471	0.467	0.855	1.09	–	0.785	0.837
ChaGo-K-1	0.657	0.551	0.553	0.647	0.459	0.689	0.741	0.385	0.57	0.327	0.949	1.01	0.851	0.84	0.428	1.04	0.852	–	0.844	0.703
NCI-H2228	0.623	0.428	0.606	0.462	0.34	0.136	0.13	0.145	0.172	0.112	0.836	0.797	0.936	0.763	0.664	0.343	0.312	0.425	0.276	0.432
NCI-H2170	0.734	0.769	0.708	0.639	0.719	0.704	0.801	0.675	0.739	0.568	0.375	0.433	0.365	0.407	0.373	0.372	0.392	0.344	0.296	0.3
EMC-BAC-2	0.456	0.448	0.373	0.419	0.365	1.27	1.25	1.11	1.18	1.25	0.54	0.581	0.523	0.562	0.561	0.551	0.55	0.505	0.523	0.513
NCI-H23	0.651	0.618	0.541	0.398	0.485	0.201	0.185	0.182	0.239	0.226	0.46	0.423	0.522	0.532	0.402	0.494	0.557	0.458	0.351	0.469
RERF-LC-KJ	0.645	0.614	0.519	0.498	0.351	1.31	1.23	1.14	1.16	0.739	1.14	1.07	1.13	1.11	0.83	0.537	0.554	0.516	0.635	0.315
NCI-H358	0.79	0.72	0.997	0.903	0.596	0.496	0.251	0.237	0.306	0.123	0.138	0.126	0.137	0.133	0.171	0.382	0.355	0.343	0.3	0.316
LC-2-ad	0.844	0.94	0.825	0.776	0.77	0.943	1.19	1.13	1.06	0.931	0.535	0.527	0.484	0.499	0.478	0.582	0.336	0.466	0.317	0.543
HCC-15	0.71	0.699	0.63	0.524	0.518	0.232	0.475	0.241	0.248	0.136	0.707	0.806	0.593	0.608	0.509	0.769	0.765	0.594	0.674	0.472
NCI-H2405	0.652	0.671	0.609	0.561	0.515	0.743	0.712	0.628	0.701	0.516	0.525	0.567	0.551	0.467	0.441	0.384	0.412	0.449	0.288	0.347
LXF-289	0.788	0.843	0.775	0.788	0.678	0.633	0.72	0.72	0.705	0.794	0.589	0.618	0.596	0.606	0.629	0.791	0.786	0.755	0.767	0.799
CAL-12T	0.696	0.742	0.538	0.508	0.509	0.363	0.322	0.499	0.475	0.2	0.44	0.492	0.438	0.359	0.419	0.698	0.539	–	0.31	0.47
COR-L23	0.851	0.788	0.895	0.657	0.582	0.638	0.636	0.694	0.621	0.423	0.334	0.28	0.281	0.294	0.22	0.88	0.749	0.697	0.649	0.478
NCI-H1755	0.74	0.739	0.679	0.723	0.651	0.339	0.799	0.389	0.445	0.418	0.43	0.447	0.432	0.443	0.413	0.463	0.447	0.387	0.458	0.398
NCI-H1437	0.938	0.91	0.862	0.85	0.56	1.08	1.13	1.1	1.09	0.854	0.34	0.33	0.296	0.325	0.278	0.357	0.464	0.413	0.359	0.177
NCI-H2085	0.808	0.835	0.582	0.759	0.416	0.412	0.437	0.404	0.434	0.429	0.478	0.494	0.504	0.461	0.38	0.524	0.452	0.421	0.462	0.458
H3255	0.555	0.618	0.52	0.542	0.606	0.909	0.945	0.935	0.847	0.912	0.336	0.3	0.307	0.311	0.282	0.523	0.518	0.49	0.516	0.341
NCI-H650	0.62	0.591	0.563	0.493	0.55	0.847	0.902	0.838	0.822	0.81	0.375	0.361	0.357	0.363	0.413	0.924	0.899	0.917	0.921	0.908
LCLC-103H	0.49	0.469	0.452	0.484	0.469	0.96	1.01	0.95	0.923	0.695	0.453	0.492	0.466	0.456	0.433	0.618	0.693	0.71	0.676	0.605
LOU-NH91	0.753	0.76	0.434	0.608	0.546	0.35	0.312	0.286	0.337	0.391	0.526	0.544	0.509	0.525	0.53	0.542	0.533	0.443	0.469	0.505
NCI-H1650	0.872	0.786	0.507	0.397	0.337	0.193	0.207	0.196	0.177	0.203	0.407	0.362	0.377	0.267	0.196	0.618	0.621	0.554	0.524	0.479
NCI-H3122	0.965	0.905	0.917	0.804	0.8	0.0939	0.0878	0.106	0.123	0.098	0.155	0.204	0.176	0.233	0.209	0.573	0.615	0.494	0.559	0.544
PC-3 [JPC-3]	0.764	0.776	0.688	0.755	0.751	0.719	0.673	0.613	0.744	0.669	0.539	0.544	0.542	0.537	0.549	0.797	0.8	0.575	0.693	0.527
NCI-H1651	0.709	0.787	0.743	0.753	0.636	0.845	0.936	0.753	0.861	0.593	0.528	0.518	0.525	0.533	0.531	0.582	0.601	0.51	0.633	0.435
NCI-H2087	0.823	0.65	0.599	0.458	0.486	0.199	0.156	0.173	0.165	0.184	0.241	0.308	0.267	0.26	0.242	1.02	0.934	0.71	0.868	0.554
